The experiment addresses Kappa-type opioid receptor (Homo sapiens) (UniProt P41145). Briefly: kappa opioid receptor blockade potency – cell-based, luminescence, set 2, SAR follow-up (AID 2495). As to conditions: KOR beta-arrestin recruitment, antagonist mode.

Among the data in PubChem BioAssay AID2495 (Sanford-Burnham Center for Chemical Genomics, 2010) are IC50 values, retold here.

Structures are written as SMILES.

Kappa-type opioid receptor (Homo sapiens), sequence (P41145 whole entry, looked up): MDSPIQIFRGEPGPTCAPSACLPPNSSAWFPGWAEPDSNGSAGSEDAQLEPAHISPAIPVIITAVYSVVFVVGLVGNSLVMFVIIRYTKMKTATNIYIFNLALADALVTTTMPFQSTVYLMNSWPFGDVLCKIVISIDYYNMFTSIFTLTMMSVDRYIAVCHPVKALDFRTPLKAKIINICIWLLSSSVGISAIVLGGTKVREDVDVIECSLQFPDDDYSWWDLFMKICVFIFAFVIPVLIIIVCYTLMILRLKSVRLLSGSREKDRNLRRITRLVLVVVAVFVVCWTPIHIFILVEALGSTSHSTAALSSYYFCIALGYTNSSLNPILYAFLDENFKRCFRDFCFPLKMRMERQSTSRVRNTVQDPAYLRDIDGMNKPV

As for `CCc1ccc(S(=O)(=O)NCc2ccc(C(=O)NCCN(Cc3ccccc3)C(C)C)cc2)cc1`, the IC50 was 1120 nM.

By IC50 is commonly meant the point on the concentration scale where inhibition reaches its midpoint.
